From patent US8299091B2, “Aminoisoquinoline thrombin inhibitor with improved bioavailability” (MSD Oss B.V., priority 2006, dated 2012)
Where a name gives a salt, the structure may show the parent alone. Read-outs that look alike come from different tables or passages of the source.

Assays:
human α-thrombin = biological target: T1, human α-thrombin (Homo sapiens, UniProt P00734); assay: Assay of thrombin activity (chromogenic substrate S-2238); format: biochemical; conditions: for IC50: 10 min pre-incubation at 37° C, substrate S-2238; for Ki: Hanes-Woolf analysis, S-2238 concentration varied
T1 construct: human α-thrombin
Procedure: Thrombin inhibitory activity was assessed by pre-incubating the test compound at a variety of concentrations with human α-thrombin at 37° C. After 10 min, the chromogenic substrate H-D-Phe-Pipecolinyl-Arg-ρ-nitroanilide (S-2238) was added to the mixture and the change in absorbance measured over the following 8 min.

[1] = Determination of bioavailability / pharmacokinetics in rats; format: in vivo; conditions: male, Wistar Ola, plasma, rat, saline; for half-life: read-out: T½ (converted); for Vd: read-out: Vss
From the text: Determination of Bioavailability of Compounds 1A, 2A and 3A in Rats
Male Wistar Ola rats (˜250 g). Food and water were available ad libitum throughout the studies.
For intravenous pharmacokinetic studies, catheters (Portex polythene—ID 0.58 mm, OD 0.96 mm with a tip made from SF Medical silicone tubing, SFM1-1350) were inserted into the right jugular vein under isoflurane anaesthesia. The tubing was exteriorised at the back of the neck, filled with heparinised saline (100 Um/ml) and stoppered. Animals were allowed a minimum of 48 h recovery before dosing.
Compounds 1A, 2A and 3A were administered orally (PO). Compounds 1B, 2B and 3B were administered intravenously (IV). Serial blood samples (for plasma) were taken from a lateral vein at points from 3 min to 24 hrs (terminal sample by cardiac puncture) according to a matrix design protocol (3 samples per time point). Plasma samples were stored at −20° C. until analysis.
Plasma samples were analyzed for the pertinent free acid thrombin derivatives 1B, 2B and 3B using an LC-MS method. Cmax (maximum plasma concentrations) and AUC values were determined from the mean plasma concentration—time profiles.
Noncompartmental pharmacokinetic analysis was performed using WinNonlin Professional 3.1 and 4.1.

[2] = as above; format: in vivo; conditions: male, Wistar Ola, plasma, rat
[3] = IV 5 mg/kg, mean of two studies
[4] = PO 10 mg/kg of the free acid itself, saline

Compound | IC50 (human α-thrombin) [nM] | Ki (human α-thrombin) [nM] | AUC ([1]; IV 2 mg/kg) [ng·h/mL] | clearance ([1]; IV 2 mg/kg) [mL/min/kg] | half-life ([1]; IV 2 mg/kg) [min] | Vd ([1]; IV 2 mg/kg) [L/kg] | further results
CCCOC(=O)CN[C@@H](C(=O)N1CCC[C@H]1C(=O)NCc1ccc2c(N)nccc2c1)C(c1ccccc1)c1ccccc1 [Compound 1A, N-(2-oxo-2-propoxyethyl)-β-phenyl-D-phenylalanyl-N-[(1-amino-6-isoquinolinyl)methyl]-L-prolinamide] | 13 | 1 |  |  |  |  | 
Cl.Nc1nccc2cc(CNC(=O)[C@@H]3CCCN3C(=O)[C@H](NCC(=O)O)C(c3ccccc3)c3ccccc3)ccc12 [Compound 1B, N-(carboxymethyl)-β-phenyl-D-phenylalanyl-N-[(1-amino-6-isoquinolyl)methyl]-L-prolinamide hydrochloride] | 12.6 | 0.9 |  |  |  |  | AUC [1, 3]: 4860 ng·h/mL; clearance [1, 3]: 17 mL/min/kg; half-life [1, 3]: 19.2 min; Vd [1, 3]: 0.48 L/kg; bioavailability ([2]; PO 10 mg/kg of the free acid itself vs IV): 1.3%; AUC [2, 4]: 119 ng·h/mL; Cmax [2, 4]: 35 ng/mL; Tmax [2, 4]: 72 min
CCCOC(=O)CN[C@H](Cc1ccccc1)C(=O)N1CCC[C@H]1C(=O)NCc1ccc2c(N)nccc2c1 [Compound 2A, N-(2-propoxy-2-oxoethyl)-D-phenylalanyl-N-[(1-amino-6-isoquinolyl)methyl]-L-prolinamide hydrochloride] | 573 | 34.5 |  |  |  |  | 
Nc1nccc2cc(CNC(=O)[C@@H]3CCCN3C(=O)[C@@H](Cc3ccccc3)NCC(=O)O)ccc12 [Compound 2B, N-(carboxymethyl)-D-phenylalanyl-N-[(1-amino-6-isoquinolyl)methyl]-L-prolinamide trifluoroacetate] |  |  | 659 | 54 | 36.6 | 2.4 | 
CCCOC(=O)CN[C@H](Cc1ccc(OC)cc1)C(=O)N1CCC[C@H]1C(=O)NCc1ccc2c(N)nccc2c1 [Compound 3A, N-(2-propoxy-2-oxoethyl)-O-methyl-D-tyrosinyl-N-[(1-amino-6-isoquinolyl)methyl]-L-prolinamide hydrochloride] | 197 | 1.8 |  |  |  |  | 
COc1ccc(C[C@@H](NCC(=O)O)C(=O)N2CCC[C@H]2C(=O)NCc2ccc3c(N)nccc3c2)cc1 [Compound 3B, N-(carboxymethyl)-O-methyl-D-tyrosinyl-N-[(1-amino-6-isoquinolyl)methyl]-L-prolinamide trifluoroacetate] | 358 | 5.4 | 1010 | 34 | 9.6 | 0.46 | 
